Our source for the GI50 and TGI values is PubChem BioAssay (NCI).

Holding throughout (test): inhibition of tumour cell growth, NCI panel, 48 h
Experiment [1] has as its system K-562 leukemia.
Experiment [2] has as its system KM12 colon.
Experiment [3] has as its system MALME-3M melanoma.
Experiment [4] concerns OVCAR-3 ovarian.
In experiment [5] the test system is OVCAR-8 ovarian.
Experiment [6] relates to RPMI-8226 leukemia.
Experiment [7] concerns SK-MEL-5 melanoma.
Experiment [8] concerns SN12C renal.
The test system of experiment [9] is SW-620 colon.
The subject of experiment [10] is UACC-62 melanoma.

Where “and” joins values, the source holds several entries; their conditions need not be identical. Identical values can stand only once.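 A five-concentration, 48-hour dose response in 96-well plates underlies each endpoint, interpolated linearly between surrounding concentrations. Abbreviation: GI50, concentration required for 50% inhibition of growth. At the TGI there is no net growth.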

`NCCCCCCCCn1c2c(c3ccccc3c1=O)C(=O)c1ccccc1-2`: the GI50 in experiment [1] is 1.87 µM; in experiment [2], 2.12 µM; in [3], 2.85 µM; in experiment [4] it was 3.5 µM; in experiment [5] it was 3.98 µM; in experiment [6], 4.02 µM. For the same compound, the GI50 in experiment [7] was 1.91 µM; in experiment [8] it was 3.45 µM; in experiment [9] it was 1.8 µM; in experiment [10], 3.76 µM. Further, the TGI in experiment [1] is 3.67 µM; in experiment [2], 4.59 µM; in experiment [3], 8.86 µM; in [4] it was 11.6 µM; in experiment [5], more than 100 µM; in experiment [6], 23.7 µM. Besides, the TGI is 3.94 µM in [7], 11.3 µM in experiment [8], 3.34 µM in experiment [9] and 14.1 µM in [10].
Take `CN(C)CCCNC(=O)c1ccc2oc3cc4ccccc4c(=O)n3c2c1`: the GI50 was 33.8 µM in experiment [1]; 18.5 µM in experiment [2]; more than 50 µM in experiment [3]; 8.7 µM in experiment [4]; 40.5 µM in experiment [5]; more than 50 µM in experiment [6]. For the same compound, the GI50 was 11.2 µM in [7], 45.6 µM in experiment [8], 24.3 µM in [9] and more than 50 µM in experiment [10]. Also, the TGI in experiment [1], in experiment [2], in experiment [3], in experiment [4], in experiment [5] and in experiment [6] was more than 50 µM in each case. For the same compound, the TGI is 28.8 µM in experiment [7], more than 50 µM in [8], more than 50 µM in experiment [9] and more than 50 µM in experiment [10].
`C[C@@H](N)C1CCC(C(=O)Nc2ccncc2)CC1` (some centres not stated): the GI50 in experiment [1], in experiment [2], in experiment [3], in experiment [4], in experiment [5] and in experiment [6] was more than 100 µM throughout. Besides, the GI50 in experiment [7], in experiment [8], in [9] and in experiment [10] was more than 100 µM throughout. In addition, the TGI in experiment [1], in experiment [2], in experiment [3], in experiment [4], in experiment [5] and in [6] was more than 100 µM throughout. The TGI in experiment [7], in [8], in experiment [9] and in experiment [10] was more than 100 µM throughout.
`N=C(N)/N=C(\N)c1c(-c2cc(O)ccc2O)nc2sccn12`: the GI50 was 33 µM in experiment [1]; 34.8 µM in experiment [2]; 15.9 µM in [3]; 21.8 µM in [4]; 59.9 µM in experiment [5]; 21.9 µM in experiment [6]. In addition, the GI50 was more than 100 µM in experiment [7], 19.4 µM in experiment [8], 19.9 µM in experiment [9] and 44.6 µM in [10]. Besides, the TGI in experiment [1] is more than 100 µM; in experiment [2], more than 100 µM; in experiment [3], 35.4 µM; in experiment [4], 54.8 µM; in experiment [5] it was more than 100 µM; in experiment [6], 49.5 µM. Besides, the TGI is more than 100 µM in [7], 39.7 µM in experiment [8], 39.4 µM in experiment [9] and more than 100 µM in [10].
As to `CCOC(=O)C[C@@H](C)[C@]1(C(=O)OC)CCCC1=O`, the TGI in experiment [1] was more than 100 µM; in experiment [2], more than 100 µM; in experiment [3] it was more than 100 µM; in [4], more than 100 µM; in experiment [5], more than 100 µM; in experiment [6] it was more than 71.4 µM. The TGI in [7], in [8], in experiment [9] and in experiment [10] was more than 100 µM each time.
For the compound `C[C@H](N)C(=O)N[C@@H]1[C@H]2C(=C(O)C[C@@H](O)[C@@H]2O)C(=O)O[C@]1(C)C(Cl)Cl`, the GI50 in experiment [1] was 0.229 µM and 0.233 µM; in experiment [2], 0.255 µM; in experiment [4] it was 0.454 µM; in experiment [5] it was 0.255 µM; in experiment [6], 0.261 µM and 0.161 µM; in experiment [7], 0.228 µM. In addition, the GI50 in experiment [8] was 0.212 µM; in experiment [9], 0.221 µM; in [10] it was 0.27 µM. Besides, the TGI in experiment [1] is 9.75 µM and 2.84 µM; in [2], 1.99 µM and 1.52 µM; in experiment [3] it was 1.64 µM and 1.33 µM; in [4], 9.36 µM and 1.94 µM; in [5], 3.12 µM and 1.18 µM; in experiment [6], 2.57 µM and 2.35 µM. The TGI in experiment [7] was 0.994 µM and 0.471 µM; in experiment [8], 1.23 µM and 1.67 µM; in experiment [9] it was 6.6 µM and 3 µM; in experiment [10], 1.66 µM and 1.1 µM.
In the case of `C#CCSc1n[nH]c(-c2ccco2)n1`, the TGI in [1], in experiment [2], in experiment [3], in experiment [4], in experiment [5] and in experiment [6] was more than 100 µM throughout. For the same compound, the TGI in experiment [7], in [8], in experiment [9] and in [10] was more than 100 µM each time.
As for `CC1=C(C(=O)Nc2ccccc2)C(c2ccc([N+](=O)[O-])cc2)C(C(=O)Nc2ccccc2)=C(C)N1`, the TGI is 63.5 µM in experiment [1]; 34.8 µM in experiment [2]; more than 100 µM in experiment [3]; more than 100 µM in experiment [4]; 35.8 µM in experiment [5]; 73.3 µM in [6]. In addition, the TGI in experiment [7] was 61.7 µM; in experiment [8], 79.3 µM; in [9], 38.5 µM; in experiment [10], 27.9 µM.
With `COc1cc(Br)c(CC2(C#N)c3ccccc3C3C(N2C(=O)c2ccccc2)C3(Cl)Cl)cc1OC` (configuration not stated), the TGI in experiment [1], in [2], in experiment [3], in [4], in [5] and in experiment [6] was more than 65.5 µM each time. For the same compound, the TGI in experiment [7], in [8], in [9] and in experiment [10] was more than 65.5 µM each time.
Regarding `O=C(N/N=C/c1ccccc1O)C(O)(c1ccccc1)c1ccccc1`, the GI50 in [1] is 6.73 µM; in experiment [2], 9.93 µM; in experiment [3] it was more than 100 µM; in experiment [4] it was 2.66 µM; in experiment [5], 13.1 µM; in experiment [6] it was more than 100 µM. Further, the GI50 in experiment [7] is more than 100 µM; in [8] it was more than 100 µM; in experiment [9], more than 100 µM; in experiment [10], 15 µM. Also, the TGI in [1], in experiment [2], in experiment [3], in experiment [4], in experiment [5] and in [6] was more than 100 µM throughout. Further, the TGI in experiment [7], in [8], in experiment [9] and in experiment [10] was more than 100 µM each time.
In the case of `C=CC(=O)N1C/C(=C\c2ccccc2)C(=O)/C(=C/c2ccccc2)C1`, the GI50 is 0.174 µM in [1]; 0.443 µM in experiment [2]; 0.8 µM in experiment [5]; 0.17 µM in experiment [6]; 0.534 µM in experiment [9]. Moreover, the TGI is 4.04 µM in experiment [1]; 2.4 µM in experiment [2]; 4.87 µM in [3]; 4.47 µM in [4]; 4.94 µM in experiment [5]; 0.871 µM and 1.08 µM in [6]. Also, the TGI worked out at 3.12 µM in [7], 3.44 µM in experiment [8], 0.831 µM in experiment [9] and 3.68 µM in experiment [10].
Consider `NC(=O)/C(=C\c1ccncc1)c1cccc2ccccc12`, for which the TGI in [1], in [2], in experiment [3], in [4], in experiment [5] and in experiment [6] was more than 100 µM throughout. The TGI in [7], in experiment [8], in [9] and in experiment [10] was more than 100 µM throughout.
As for `COC(=O)[C@H]1C(=O)[C@@]2(C)[C@H]([C@H](OC(=O)c3ccccc3)[C@]3(O)C[C@H](OC(=O)[C@H](O)[C@@H](NC(=O)c4ccc(F)cc4)c4ccccc4)C(C)=C1C3(C)C)[C@]1(OC(C)=O)CO[C@@H]1C[C@@H]2O`, the GI50 in experiment [1] is 0.00917 µM; in [2], 0.00629 µM; in experiment [3], 0.0187 µM; in [4], 0.00722 µM; in experiment [5] it was 0.0171 µM; in experiment [6], 0.00484 µM. The GI50 in [7] is 0.0104 µM; in experiment [8] it was 0.0104 µM; in experiment [9] it was 0.00821 µM; in experiment [10], 0.0122 µM. The TGI in [3] is more than 25 µM; in experiment [4], 0.0222 µM; in experiment [5], more than 25 µM; in experiment [6], 0.271 µM; in experiment [7], more than 9.79 µM; in experiment [8], more than 25 µM. Also, the TGI in experiment [9] and in experiment [10] was more than 25 µM in each case.
With `CN1CCC(CNc2ccc3ncc(-c4cccc(OC(F)(F)F)c4)n3n2)CC1`, the GI50 in [1] was 1.65 µM and 1.7 µM; in [2] it was 0.331 µM and 0.427 µM; in experiment [3] it was 1.64 µM and 1.65 µM; in experiment [4], 1.7 µM and 2.15 µM; in [5], 2.46 µM and 2.89 µM; in experiment [6], 2.41 µM and 1.91 µM. Also, the GI50 in experiment [7] is 1.47 µM and 1.51 µM; in experiment [8] it was 2.14 µM and 2.3 µM; in experiment [9] it was 2.03 µM and 2.13 µM; in experiment [10], 1.76 µM. Further, the TGI is 4.95 µM and 6.01 µM in experiment [1]; 1.78 µM and > 10 µM in experiment [2]; 3.25 µM and 3.23 µM in [3]; 3.79 µM and > 10 µM in experiment [4]; 8.2 µM and > 10 µM in experiment [5]; 7.18 µM and 5.36 µM in [6]. In addition, the TGI is 2.82 µM and 2.85 µM in experiment [7]; 7.14 µM and > 10 µM in experiment [8]; 4.77 µM and 6.09 µM in experiment [9]; 3.66 µM in [10].
As for `COc1cccc(NC(=O)C(C)(C)C)c1C=O`, the TGI in experiment [1], in experiment [2], in experiment [3], in experiment [4], in [5] and in experiment [6] was more than 100 µM throughout. For the same compound, the TGI in [7], in experiment [8], in experiment [9] and in [10] was more than 100 µM throughout.
`C[N+](C)(C)CC(=O)N/N=C(\CCC(=O)NCCc1ccccc1)CC(=O)c1ccccc1`: the TGI in experiment [1], in [2], in experiment [3], in experiment [4], in experiment [5] and in experiment [6] was more than 100 µM in each case. The TGI in [7], in experiment [8], in [9] and in experiment [10] was more than 100 µM each time.
Consider `CN(C)c1ncnc2c1Cc1ccccc1C(=O)N2C`, for which the TGI in [1], in experiment [2], in experiment [3], in [4], in experiment [5] and in experiment [6] was more than 100 µM in each case. Also, the TGI in experiment [7], in [8], in experiment [9] and in [10] was more than 100 µM each time.
Take `CCCCCCCCCCCCNC(=O)[C@H]1CSC(c2cc3ccccc3s2)N1` (some centres not stated): the GI50 in experiment [1] is 0.717 µM; in experiment [2] it was 1.1 µM; in experiment [3], 5.75 µM; in experiment [4], 3.79 µM; in experiment [5] it was 2.23 µM; in [6] it was 6 µM. Further, the GI50 was 4.34 µM in [7], 2.8 µM in experiment [8], 2.3 µM in experiment [9] and 1.15 µM in experiment [10]. Besides, the TGI in experiment [1] was 1.62 µM; in [2], 3.55 µM; in [3], 10.9 µM; in experiment [4], 9.5 µM; in experiment [5], 8.53 µM; in experiment [6], 15.3 µM. The TGI in experiment [7] came to 8.72 µM; in experiment [8] it was 7.24 µM; in [9], 7.93 µM; in experiment [10] it was 4.28 µM.
